Experimental findings from US8702959B2, “System and method for detecting a substance in liquid” (priority 2009, dated 2014) are described below.

In data set [1] the test system is Salmonella typhimurium TA1535 pSK1002 cells. Kind of data set: Genotoxicity bio-detection of IQ with Salmonella typhimurium umuC'-'lacZ reporter, amperometry on micro-chip. Format: cell-based. As for the experimental part: Salmonella typhimurium TA1535 pSK1002 [Y. Oda et al., Mutat. Res. 147 (1985) 219] cells were used for the IQ bio-detection. The construction of the pSK1002 plasmid was reported in H. Shinagawa et al. Gene. 23 (1983) 167, which is hereby incorporated by reference in its entirety. The exposition of bacteria was done according to Reifferscheid et al. [Reifferscheid et al., Mutat. Res. 253 (1991) 215]. An over night culture of the bacteria was refreshed in 20 ml TGA-medium (1:10 dilution of bacteria) and grown for further 2 h (37° C., 150 rpm). Prior to exposition the optical density (λ=595 nm) of the bacterial culture was adjusted to 0.44 by dilution with TGA medium. […] The OD595 of the exposed mixture was measured after an incubation time of 2 h at 37° C. and 900 rpm in shaking conditions.
The activity of the reporter enzyme β-galactosidase in the induced bacteria was measured by making use of the substrate para-Aminophenyl β-D-galactopyranoside (pAPG, 0.5 mM final concentration, Sigma). Shortly after the addition of pAPG, aliquots of 3 μl were introduced into the electrochemical microchambers and a constant potential of 300 mV vs. Ag/AgCl was applied on the electrochemical chamber in order to quantify the enzymatically generated product pAP. The setup was connected in such a way that the output current was monitored (i.e. amperometry measurement).

The test system of data set [2] is E. coli reporter strain panel. Here is the method:
The AP activity was measured electrochemically at potential […] by making use of pAPP in a point assay after induction period. The determined SOS-induction factors for each concentration level are plotted against each other.
To increase the capabilities of the reporter cells as genotoxicity bioreporters, a series of knock-out mutations was introduced to the E. coli RFM443's genome. The genes that were selected to be deleted are genes affiliated with DNA repair mechanisms (Nucleotide Exicision Repair, uvrA; DNA Pol V, umuD) and a structural gene that can influence cell permeability (lipopolysaccharide, rfaE). […] The deletion mutations in uvrA and umuD were transferred by P1 transduction. […] From each gene deletion experiment, eight Km^R colonies were chosen and checked for the correct mutation structure by PCR using a combination of locus- and kanamycin-specific primers (Table 1). PCR fragments with the right size of both junctions were sent to sequencing. Sequences were indentified using BLAST program operating on the default options querying the NCBI nucleotide collection database. The construction of double or triple mutants was obtained by the elimination of the resistance using a helper plasmid expressing the FLP recombinase, which acts on the FRT (FLP recognition target) sites flanking the resistance gene. Using the methods described above, a set of mutated reporter strains was constructed as detailed in Table 2. Strains dedicated to harbor the phoA reporter gene were also engineered to contain a deletion in the chromosomal phoA gene to eliminate the possibility of native PhoA activity.

The subject of data set [3] is Escherichia coli RFM443/pBR2TTS cells harboring a sulA::phoA fusion. Format: cell-based. As for the experimental part:
Escherichia coli RFM443/pBR2TTS cells harboring a sulA::phoA fusion were grown overnight in MOPS growth medium containing 0.1 mg/ml ampicillin with shaking conditions at 37° C. The overnight culture was diluted ×1/100, regrown to an optical density of 0.2 (600 nm). Finally NA (FW 254.22, Sigma) was added to a final concentration of 10 μg/ml. Following further incubation at various times of 0, 60, 90, or 120 minutes under similar conditions, aliquots of 3 μl were introduced into the electrochemical microchambers. Shortly after applying a constant potential of 300 mV vs. Ag/AgCl in the electrochemical chamber, the enzymatic substrate para-Aminophenyl phosphate (pAPP, MW 211.09, diagnoSwiss) was added reaching a concentration of 0.8 mg/ml.
Control samples were prepared with the addition of growth medium instead of NA or pAPP to the incubation stage in order to verify the influence of NA on the induction of the bacteria and pAPP on the generated bio-electrochemical response.

For `Cn1c(N)nc2c3cccnc3ccc21` [IQ, 2-Amino-3-methylimidazo[4,5-f]quinoline], the “dependence of the differential slope of the electrochemical current on concentration” value in data set [1] (IQ 5, 1.25, 0.31 μM activated with S9-fraction, 2 h, pAPG 0.5 mM, 300 mV vs. Ag/AgCl, FIG. 11A) is recorded as “more rapidly increasing electrochemical current characteristics”. Further, in data set [1] (microfluidic whole cell prototype biosensor, genotoxic material), the “detection by the prototype biosensor” value is on record as “successfully detected”. For the same compound, in data set [2] (following metabolic activation with lyophilized liver S9 fraction, compared with umu-test reporter strain), the “response of the reporter strain mutated in uvrA and rfaE genes” value is on record as “responded”.
Take `CCn1cc(C(=O)O)c(=O)c2ccc(C)nc21` [NA, Nalidixic acid]: the “chrono-amperometric response of E. coli bacteria in the presence of toxicant after pAPP was added” value in data set [3] (NA 10 μg/ml, 1 hr incubation, pAPP 0.8 mg/ml, 300 mV vs. Ag/AgCl, FIG. 10A) is on record as “increasing electrochemical current”. Moreover, in data set [3] (NA 10 μg/ml, 1 hr incubation, pAPP 0.8 mg/ml, FIG. 10A), the “electrochemical current of induced bacteria compared with non-induced bacteria, pAPP added to both” value is listed as “more rapidly increasing electrochemical current than non-induced bacteria”. The “effect of induction time on the slope of the detected electrochemical current” value in data set [3] (NA 10 μg/ml, induction 0, 60, 90 or 120 minutes, FIGS. 10B-C) is on record as “For longer induction times the current increased more rapidly”. Also, the “detection by the prototype biosensor” value in data set [3] (microfluidic whole cell prototype biosensor, model toxicant) is on record as “successfully detected”. Moreover, in data set [2] (ΔrfaE mutants, FIG. 14), the “response of the ΔrfaE reporter strains” value is “respond to lower concentrations”.
Take `OO` [H2O2, hydrogen peroxide]: the “response of the reporter to model genotoxicants” value in data set [2] (AP activity measured electrochemically at potential 0.3 mV with pAPP, point assay after induction, FIG. 14) is listed as “responsive”. Besides, in data set [2] (uvrA mutant, FIG. 14), the “response of the uvrA mutant reporter strain” value is “elevated response”.
